Data on three compounds can be found in patent US9944969B2, “Devices, systems and methods for detecting viable infectious agents in a fluid sample” (eSense, LLC, priority 2015, dated 2018).

SMILES strings stand for the structures.

The subject of one assay is E. coli. As to the kind of experiment: pH change of sample effluent after exposure of E. coli to anti-infective (ISFET sensor system, FIG. 9). The format is cell-based. To be noted: for concentration of anti-infective to which the E. coli is resistant (change in pH): E. coli from fluid sample, pH of sample effluent 60 minutes after exposure. From the text: FIG. 9 illustrates experimental results of experiments conducted using the methods and system 100 described herein. The graphs in FIG. 9 show a change in the solution characteristic 136 of the measured liquid 402, such as the sample effluent 134, monitored by the system 100 at a specific point in time. In this case, the graphs in FIG. 9 show the change in the solution characteristic 136 of the measured liquid 402 sixty (60) minutes after an anti-infective 104 is introduced to the filter 110, the substrate wells 200, or a combination thereof comprising the infectious agent 102.
In this example, E. coli can be one of the infectious agents 102 present in the fluid sample 124 applied or introduced to the system 100. […] An insignificant change in the solution characteristic 136 can be a change below a statistically significant percentage or threshold value.

The subject of assay [1] is Staphylococcus saprophyticus. As to the kind of experiment: pH change of sample effluent after exposure of Staphylococcus saprophyticus to anti-infective (ISFET sensor system, FIG. 10). The format is cell-based. To be noted: Staphylococcus saprophyticus from fluid sample; pH of sample effluent 60 minutes after exposure. From the text:
In these examples, Staphylococcus saprophyticus can be one of the infectious agents 102 present in the fluid sample 124 applied or introduced to the system 100.

With `O=C1CN(/N=C/c2ccc([N+](=O)[O-])o2)C(=O)N1` [nitrofurantoin], the “concentration of anti-infective to which the E. coli is resistant (change in pH)” value in the assay with E. coli is on record as “approximately 1 μg/ml”. In addition, the MIC with E. coli (Escherichia coli, 1 h, read-out: minimal inhibitory concentration (MIC)) is 1 µg/mL. In assay [1], the “concentration of anti-infective at which the Staphylococcus saprophyticus is susceptible” value is listed as “higher than 1 μg/ml” and the “concentration of anti-infective to which the Staphylococcus saprophyticus is resistant (change in pH)” value is on record as “approximately 1 μg/ml”.

For `O=C(O)c1cn(C2CC2)c2cc(N3CCNCC3)c(F)cc2c1=O` [ciprofloxacin], the “concentration of anti-infective to which the E. coli is resistant (change in pH)” value in the assay with E. coli is given as “approximately 0.1 μg/ml”.

As for `CC1(C)S[C@@H]2[C@H](NC(=O)[C@H](N)c3ccccc3)C(=O)N2[C@H]1C(=O)O` [ampicillin], in assay [1], the “concentration of anti-infective to which the Staphylococcus saprophyticus is resistant (change in pH)” value was “up to 50 μg/ml”.
